# Measured values as given in US20200123127A1, “REMOVAL OF SENESCENCE-ASSOCIATED MACROPHAGES” (EVERON BIOSCIENCES, INC., priority 2016, published 2020).
# Like-named read-outs stand apart in the source and are kept apart here.
# How the values were obtained:
# [1] = tested on: human neonatal dermal fibroblasts (NDF); experiment: Resazurin viability assay, senescent vs proliferating/quiescent human neonatal dermal fibroblasts; format: cell-based; conditions: for IC50: Homo sapiens, Fibroblast, 72 h, 72 hour exposure; for Selectivity (Prolif/Sen): NDF
# [2] = tested on: adult rat dermal fibroblasts (RDF); experiment: Resazurin viability assay, senescent vs proliferating rat dermal fibroblasts; format: cell-based; conditions: for IC50: Rattus norvegicus, Fibroblast
# [3] = tested on: p16(Ink4a) expression in macrophages; experiment: Immunomodulators in vivo in p16Ink4a/Luc mice bearing alginate-encapsulated cells; set-up: species or system mouse; conditions: for in vivo bioluminescence / elevated p16(Ink4a) expression: after 10 day induction of bioluminescence, Poly(I:C) 2 and 10 mg/kg intraperitoneally
# Experimental: Mice were injected intraperitoneally with a 200 μl solution of 15 mg/mL D-luciferin potassium salt (Syd Labs; Boston, Mass.) in D-PBS without calcium and magnesium. At 10 minutes post-injection, isoflurane-anesthetized mice were placed into the IVIS Spectrum in vivo bioluminescent imaging system (PerkinElmer; Waltham, Mass.) for detection of luciferase activity (60-second exposure). Bioluminescence in p16^LUC mice was quantified as total flux (p/s) of luminescent signal from the abdomen using via Living Image® software.
# We next investigated whether p16(Ink4a) expression was susceptible to M1-mediated regulation in vivo using immunotherapeutic agent Poly(I:C). Upon intraperitoneal injection of alginate-encapsulated cells, p16^Iak4a/Luc mice accumulate luciferase-positive macrophages that can be monitored in vivo via the IVIS imaging system. […] Further, treatment with Poly(I:C) had no effect on β-galactosidase activity nor viability (>95%) of lavage cells, consistent with in vitro data.
# [4] = proliferating NDF, resazurin, read-out: IC50 NDFprolif
# [5] = senescent NDF, bleomycin-induced, resazurin, read-out: IC50 NDFsen.bleo
# [6] = light or radiation study, senescent NDF, irradiation-induced, resazurin, read-out: IC50 NDFsen.irr
# [7] = light or radiation study, senescent RDF, irradiation-induced, 72 hour exposure, resazurin, read-out: IC50 RDFsen.irr
# [8] = proliferating RDF, 72 hour exposure, resazurin, read-out: IC50 RDFprolif
# [9] = senescent RDF, bleomycin-induced, 72 hour exposure, resazurin, read-out: IC50 RDFsen.bleo
Molecule,"IC50 [1, 4]","IC50 [1, 5]","IC50 [1, 6]","IC50 [2, 7]","IC50 [2, 8]","IC50 [2, 9]",in vivo bioluminescence / elevated p16(Ink4a) expression [3],other results
"COc1ccc(C2CC(=NO)c3c(SCc4ccccc4)sc(C(=O)NCc4cccc(F)c4)c3C2)cc1 (centres unmarked) [Example A1.6, 3-(Benzylthio)-N-(3-fluorobenzyl)-4-(hydroxyimino)-6-(4-methoxyphenyl)-4,5,6,7-tetrahydrobenzo[c]thiophene-1-carboxamide]",> 20 µM,< 5 µM,< 5 µM,< 5 µM,> 20 µM,< 5 µM,,
IFN-α,,,,,,,abrogates,
Poly(I:C),,,,,,,complete abrogation of signal,"viability of lavage cells ([3]; mouse, in vivo): > 95%; β-galactosidase activity of lavage cells ([3]; mouse, in vivo): no effect; proportion of CD11b+ F4/80+ macrophages ([3]; peritoneal lavage): no difference; decrease in luciferase activity per lavage cell vs non-treated controls ([3]; peritoneal lavage cells): > 6 fold"
CCOC(=O)c1sc(SCc2ccccc2)c2c1CC(c1ccc(OC)cc1)C/C2=N\O (centres unmarked) [Example A1.1],> 20 µM,< 5 µM,< 10 µM,< 5 µM,> 20 µM,< 10 µM,,"Selectivity (Prolif/Sen) ([1]; Bleomycin): 5.3; Selectivity (Prolif/Sen) ([1]; Irradiation): 2.9; effect on viability of proliferating or quiescent NDF cells ([1]; concentrations up to 10 μM, 72 hours, resazurin): no significant effect; Selectivity (Prolif/Sen) ([2]; RDF, Bleomycin): >4.6; Selectivity (Prolif/Sen) ([2]; RDF, Irradiation): >4.4; IC50 ([2]; light or radiation study, RDF, senescence induction: Irradiation, read-out: Activity against Senescent Cells (IC50; uM)): 4.5 µM; IC50 ([2]; RDF proliferating, read-out: Activity against Proliferating Cells (IC50; uM)): > 20 µM; IC50 ([2]; RDF, senescence induction: Bleomycin, read-out: Activity against Senescent Cells (IC50; uM)): 4.4 µM"
